Target: GLP-1R (Homo sapiens, UniProt P43220)
Assay: GLP-1R Activation - cAMP Assay
Format: cell-based
Conditions: […]; each compound run on one of the two cAMP assays (Assay 1 or Assay 2, not specified)
Procedure: GLP-1R Activation—cAMP Assay 1
GLP-1R activation by compounds of the present disclosure were quantified by measuring cAMP increase in CHO cells stably expressing GLP-1R (MultiSpan product #C1267-1a). The cells were harvested and plated in growth medium (DMEM/F-12 (Corning product #10-090-CV) supplemented with 10% FBS (HyClone product #SH30071-03), penicillin/streptomycin (Corning product #30-002CI) and 10 μg/ml puromycin (Gibco product #A11138-03)) at 1,000 cells/well in a 384-well plate (Greiner product #781080). The cells were then incubated overnight at 37° C., 5% CO2. The next day, the medium was removed and the cells were washed with DPBS (Corning product #21-031-CM) before adding the assay medium (HBSS, Corning product #21-023-CV) with 20 mM Hepes (Gibco product #15630-080) and 0.1% BSA (Rockland Immunochemicals product #BSA-1000)). Following the medium change, the cells were incubated for 1 hour at 37° C., 5% CO2. The tested GLP-1 compound was added to the cells in a 10-point dose response followed by a 30 minutes incubation at 37° C., 5% CO2. cAMP concentration increase was then detected using Cisbio's cAMP Gs Dynamic Kit (product #62AM4PEC) according to the manufacturer's protocol. The response was plotted against the log of the agonist concentration and fitted to a sigmoidal equation to determine the EC50.

GLP-1R, sequence (P43220 24-463): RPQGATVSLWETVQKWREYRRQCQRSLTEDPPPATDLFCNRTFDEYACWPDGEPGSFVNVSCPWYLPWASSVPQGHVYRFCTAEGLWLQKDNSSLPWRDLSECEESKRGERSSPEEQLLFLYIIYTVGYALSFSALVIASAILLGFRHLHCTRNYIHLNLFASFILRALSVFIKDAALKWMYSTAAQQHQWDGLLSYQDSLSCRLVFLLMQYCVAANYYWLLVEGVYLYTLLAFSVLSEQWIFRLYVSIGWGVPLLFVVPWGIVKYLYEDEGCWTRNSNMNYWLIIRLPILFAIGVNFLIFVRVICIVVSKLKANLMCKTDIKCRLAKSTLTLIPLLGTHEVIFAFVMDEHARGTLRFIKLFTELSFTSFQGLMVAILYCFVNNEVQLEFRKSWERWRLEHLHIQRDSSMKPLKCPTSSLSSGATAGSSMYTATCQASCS

First: N#Cc1ccc(COc2cccc(-c3cc(F)c(Cc4nc5ccc(C(=O)O)cc5n4[C@H]4CNC(=O)C4)cc3F)n2)c(F)c1 [Example 3, (R)-2-(4-(6-((4-cyano-2-fluorobenzyl)oxy)pyridin-2-yl)-2,5-difluorobenzyl)-1-(5-oxopyrrolidin-3-yl)-1H-benzo[d]imidazole-6-carboxylic acid]
Second: CC(=O)N[C@@H]1COC[C@@H]1n1c(Cc2cc(F)c(-c3cccc(OCc4ccc(C#N)cc4F)n3)cc2F)nc2ccc(C(=O)O)cc21 [Example 17, 1-((3R,4S)-4-acetamidotetrahydrofuran-3-yl)-2-(4-(6-((4-cyano-2-fluorobenzyl)oxy)pyridin-2-yl)-2,5-difluorobenzyl)-1H-benzo[d]imidazole-6-carboxylic Acid]
The EC50 of the first is 2-fold higher: 11.5 nM for the first, 5.61 nM for the second.

`CC(=O)N1C[C@H](n2c(Cc3cc(F)c(-c4cccc(OCc5ccc(C#N)cc5F)n4)cc3F)nc3ccc(C(=O)O)cc32)C2(CC2)C1` [Example 14] and `CC(=O)N1C[C@@H](n2c(Cc3cc(F)c(-c4cccc(OCc5ccc(C#N)cc5F)n4)cc3F)nc3ccc(C(=O)O)cc32)C2(CC2)C1` [Example 15, (S)-1-(5-acetyl-5-azaspiro[2.4]heptan-7-yl)-2-(4-(6-((4-cyano-2-fluorobenzyl)oxy)pyridin-2-yl)-2,5-difluorobenzyl)-1H-benzo[d]imidazole-6-carboxylic Acid] are within 1.5-fold of each other in EC50: 78.7 nM for the first, 71 nM for the second.

With `CO[C@H]1CN(C(C)=O)C[C@@H]1n1c(Cc2cc(F)c(-c3cccc(OCc4ccc(C#N)cc4F)n3)cc2F)nc2ccc(C(=O)O)cc21` [Example 16, 1-((3S,4S)-1-acetyl-4-methoxypyrrolidin-3-yl)-2-(4-(6-((4-cyano-2-fluorobenzyl)oxy)pyridin-2-yl)-2,5-difluorobenzyl)-1H-benzo[d]imidazole-6-carboxylic Acid] the EC50 was 4800 nM.

Same assay, conditions: cAMP increase in CHO cells stably expressing GLP-1R; each compound run on one of the two cAMP assays (Assay 1 or Assay 2, not specified)

Compared with `N#Cc1ccc(COc2cccc(-c3cc(F)c(Cc4nc5ccc(C(=O)O)cc5n4[C@@H]4C[C@@H]4C(F)F)cc3F)n2)c(F)c1` [Example 4, 2-(4-(6-((4-cyano-2-fluorobenzyl)oxy)pyridin-2-yl)-2,5-difluorobenzyl)-1-((1R,2S)-2-(difluoromethyl)cyclopropyl)-1H-benzo[d]imidazole-6-carboxylic acid], `N#Cc1ccc(COc2cccc(-c3cc(F)c(Cc4nc5ccc(C(=O)O)cc5n4[C@@H]4CCOC4)cc3F)n2)c(F)c1` [Example 5, (R)-2-(4-(6-((4-cyano-2-fluorobenzyl)oxy)pyridin-2-yl)-2,5-difluorobenzyl)-1-(tetrahydrofuran-3-yl)-1H-benzo[d]imidazole-6-carboxylic acid] is 3.4-fold lower in EC50: 2.65 nM for the first, 0.77 nM for the second.

First: N#Cc1ccc(COc2cccc(-c3cc(F)c(Cc4nc5ccc(C(=O)O)cc5n4C4CCCC4)cc3F)n2)c(F)c1 [Example 6, 2-(4-(6-((4-cyano-2-fluorobenzyl)oxy)pyridin-2-yl)-2,5-difluorobenzyl)-1-cyclopentyl-1H-benzo[d]imidazole-6-carboxylic acid]
Second: N#Cc1ccc(COc2cccc(-c3cc(F)c(Cc4nc5ccc(C(=O)O)cc5n4[C@@H]4CO[C@H]5OCC[C@H]54)cc3F)n2)c(F)c1 [Example 19]
The EC50 of the first is 14-fold higher: 8.49 nM for the first, 0.6 nM for the second.

Going from `COCCn1c(Cc2cc(F)c(-c3cccc(OCc4ccc(-c5cnn(C(F)(F)F)c5)cc4F)n3)cc2F)nc2ccc(C(=O)O)cc21` [Example 7, 2-(2,5-difluoro-4-(6-((2-fluoro-4-(1-(trifluoromethyl)-1H-pyrazol-4-yl)benzyl)oxy)pyridin-2-yl)benzyl)-1-(2-methoxyethyl)-1H-benzo[d]imidazole-6-carboxylic acid] to `COCCn1c(Cc2cc(F)c(-c3cccc(OCc4cc(F)ccc4F)n3)cc2F)nc2ccc(C(=O)O)cc21` [Example 26, 2-(4-(6-((2,5-difluorobenzyl)oxy)pyridin-2-yl)-2,5-difluorobenzyl)-1-(2-methoxyethyl)-1H-benzo[d]imidazole-6-carboxylic Acid], the EC50 rises from 0.6 nM to 18.7 nM (31-fold).

First: CC1(C)COC[C@@H]1n1c(Cc2cc(F)c(-c3cccc(OCc4ccc(C#N)cc4F)n3)cc2F)nc2c(F)cc(C(=O)O)cc21 [Example 11, (R)-2-(4-(6-((4-cyano-2-fluorobenzyl)oxy)pyridin-2-yl)-2,5-difluorobenzyl)-1-(4,4-dimethyltetrahydrofuran-3-yl)-4-fluoro-1H-benzo[d]imidazole-6-carboxylic Acid]
Second: CC1(C)COC[C@H]1n1c(Cc2cc(F)c(-c3cccc(OCc4ccc(C#N)cc4F)n3)cc2F)nc2c(F)cc(C(=O)O)cc21 [Example 12, (S)-2-(4-(6-((4-cyano-2-fluorobenzyl)oxy)pyridin-2-yl)-2,5-difluorobenzyl)-1-(4,4-dimethyltetrahydrofuran-3-yl)-4-fluoro-1H-benzo[d]imidazole-6-carboxylic Acid]
The EC50 of the first is 8.7-fold higher: 0.26 nM for the first, 0.03 nM for the second. The second is the more potent here.

Going from `CC1(C)COCC1n1c(Cc2cc(F)c(-c3cccc(OCc4ccc(C#N)cc4F)n3)cc2F)nc2c(Br)cc(C(=O)O)cc21` (centres unmarked) [Example 13, 4-bromo-2-(4-(6-((4-cyano-2-fluorobenzyl)oxy)pyridin-2-yl)-2,5-difluorobenzyl)-1-(4,4-dimethyltetrahydrofuran-3-yl)-1H-benzo[d]imidazole-6-carboxylic Acid] to `CC1(C)COCC1n1c(Cc2cc(F)c(-c3cccc(OCc4ccc(C(F)F)cc4F)n3)cc2F)nc2ccc(C(=O)O)cc21` (centres unmarked) [Example 21, 2-(4-(6-((4-(difluoromethyl)-2-fluorobenzyl)oxy)pyridin-2-yl)-2,5-difluorobenzyl)-1-(4,4-dimethyltetrahydrofuran-3-yl)-1H-benzo[d]imidazole-6-carboxylic Acid], the EC50 falls from 0.19 nM to 0.11 nM (1.7-fold).

Compared with `CC(=O)N1C[C@@H]2[C@H](n3c(Cc4cc(F)c(-c5cccc(OCc6ccc(C#N)cc6F)n5)cc4F)nc4ccc(C(=O)O)cc43)CO[C@@H]2C1` [Example 18, 1-((3S,3aR,6aS)-5-acetylhexahydro-2H-furo[2,3-c]pyrrol-3-yl)-2-(4-(6-((4-cyano-2-fluorobenzyl)oxy)pyridin-2-yl)-2,5-difluorobenzyl)-1H-benzo[d]imidazole-6-carboxylic Acid], `N#Cc1ccc(COc2cccc(-c3cc(F)c(Cc4nc5ccc(C(=O)O)cc5n4[C@H]4CO[C@H]5OCC[C@H]54)cc3F)n2)c(F)c1` [Example 20, 2-(4-(6-((4-cyano-2-fluorobenzyl)oxy)pyridin-2-yl)-2,5-difluorobenzyl)-1-((3R,3aS,6aR)-hexahydrofuro[2,3-b]furan-3-yl)-1H-benzo[d]imidazole-6-carboxylic Acid] is 140-fold lower in EC50: 49.2 nM for the first, 0.35 nM for the second.

Compared with `CC(Cn1c(Cc2cc(F)c(-c3cccc(OCc4ccc(C#N)cc4F)n3)cc2F)nc2ccc(C(=O)O)cc21)OC(F)F` (centres unmarked) [Example 22, 2-(4-(6-((4-cyano-2-fluorobenzyl)oxy)pyridin-2-yl)-2,5-difluorobenzyl)-1-(2-(difluoromethoxy)propyl)-1H-benzo[d]imidazole-6-carboxylic Acid], `COCCn1c(Cc2cc(F)c(-c3cccc(OCc4cc(F)c(F)cc4F)n3)cc2F)nc2ccc(C(=O)O)cc21` [Example 27, 2-(2,5-difluoro-4-(6-((2,4,5-trifluorobenzyl)oxy)pyridin-2-yl)benzyl)-1-(2-methoxyethyl)-1H-benzo[d]imidazole-6-carboxylic Acid] is 18-fold higher in EC50: 0.72 nM for the first, 13.1 nM for the second. The first is the more potent here.

First: COCCn1c(Cc2cc(F)c(-c3cccc(OCc4ncc(Br)cc4F)n3)cc2F)nc2ccc(C(=O)O)cc21 [Example 23]
Second: COCCn1c(Cc2cc(F)c(-c3cccc(OCc4ncc(F)cc4F)n3)cc2F)nc2ccc(C(=O)O)cc21 [Example 31, 2-(4-(6-((3,5-difluoropyridin-2-yl)methoxy)pyridin-2-yl)-2,5-difluorobenzyl)-1-(2-methoxyethyl)-1H-benzo[d]imidazole-6-carboxylic Acid]
The EC50 of the first is 6.7-fold lower: 4.57 nM for the first, 30.4 nM for the second.

First: COCCn1c(Cc2cc(F)c(-c3cccc(OCc4cnc(Cl)cn4)n3)cc2F)nc2ccc(C(=O)O)cc21 [Example 24, 2-(4-(6-((5-chloropyrazin-2-yl)methoxy)pyridin-2-yl)-2,5-difluorobenzyl)-1-(2-methoxyethyl)-1H-benzo[d]imidazole-6-carboxylic Acid]
Second: COCCn1c(Cc2cc(F)c(-c3cccc(OCc4cnc(C)cn4)n3)cc2F)nc2ccc(C(=O)O)cc21 [Example 29, 2-(2,5-difluoro-4-(6-((5-methylpyrazin-2-yl)methoxy)pyridin-2-yl)benzyl)-1-(2-methoxyethyl)-1H-benzo[d]imidazole-6-carboxylic Acid]
The EC50 of the first is 3.6-fold lower: 9.96 nM for the first, 36 nM for the second.

Compared with `COCCn1c(Cc2cc(F)c(-c3cccc(OCc4ccc(C)nc4C)n3)cc2F)nc2ccc(C(=O)O)cc21` [Example 25], `COCCn1c(Cc2cc(F)c(-c3cccc(OCc4cc(F)c(C)cc4F)n3)cc2F)nc2ccc(C(=O)O)cc21` [Example 28, 2-(4-(6-((2,5-difluoro-4-methylbenzyl)oxy)pyridin-2-yl)-2,5-difluorobenzyl)-1-(2-methoxyethyl)-1H-benzo[d]imidazole-6-carboxylic Acid] is 5.2-fold lower in EC50: 7.55 nM for the first, 1.46 nM for the second. The second is the more potent here.

`COCCn1c(Cc2cc(F)c(-c3cccc(OCc4ccc5nccn5c4)n3)cc2F)nc2ccc(C(=O)O)cc21` [Example 30, 2-(2,5-difluoro-4-(6-(imidazo[1,2-a]pyridin-6-ylmethoxy)pyridin-2-yl)benzyl)-1-(2-methoxyethyl)-1H-benzo[d]imidazole-6-carboxylic Acid] showed an EC50 of 49.9 nM.
